Here are results for one compound from patent publication US20240336604A1 (THE UNITED STATES OF AMERICA, AS REPRESENTED BY THE …, priority 2021, published 2024).

The target of series [1] is T1, D3 DAR (Homo sapiens, UniProt P35462). Nature of the series: Go BRET activation assay, D3 DAR. It counts as cell-based. Particulars: 5 min; EC80 DA (30 nM); read-out: D3 Go BRET Imax. How it is done:
Briefly, HEK293T cells transiently expressing either the D2 DAR or D3 DAR and GαoA-Rluc8, untagged-β1, and mVenus-γ2 were harvested with EBSS, plated in 96-well white plates at 20,000 cells/well in DPBS and incubated at RT for 45 min. […] BRET signal was determined by quantifying and calculating the ratio of the light emitted by mVenus (525 nm) over that emitted by RLuc8 (485 nm) using a PHERAstar FSX Microplate Reader (BMG Labtech).

Series [2] can be described thus: Mouse plasma and brain pharmacokinetic study. It is filed as in vivo. Particulars: male CD1 mice, single 40 mg/kg i.p. The protocol: Mouse Plasma and Brain Tissue Sampling: The pharmacokinetic study was conducted by CRO Pharmaron (Beijing, China). The levels of cmp 17 in mouse plasma and brain tissue samples were assessed as follows. A single IP dose (40 mg/kg) of cmp 17 was administered to male CD1 mice. The formulation consisted of NMP/Solutol/PEG-400/normal saline (v/v/v/v, 10:5:30:55). Plasma and brain samples were collected 0.5 h, 1 h, 2 h, 4 h and 8 h post dose. Brain samples were homogenized at a ratio of 1:3 with PBS (W/V, 1:3). The desired serial concentrations of working solutions were achieved by diluting stock solution of analyte with 50% acetonitrile in water solution. 10 μL of working solutions (0.5, 1, 2, 5, 10, 50, 100, 500, 1000, 10000 ng/mL) were added to 10 μL of the blank CD1 mouse plasma/brain homogenate to achieve calibration standards of 0.5-10000 ng/mL (0.5, 1, 2, 5, 10, 50, 100, 500, 1000, 10000 ng/mL) in a total volume of 20 μL. Five quality control samples at 1 ng/mL, 2 ng/mL, 5 ng/mL, 100 ng/mL and 8000 ng/mL for plasma/brain homogenate were prepared independently of those used for the calibration curves. […] After centrifugation at 4° C., 4700 rpm for 15 min, the supernatant was diluted at a ratio of 1:2 with water, and 10 μL of diluted supernatant was injected into the LC/MS/MS system (SCIEX AB API 4000) for quantitative analysis. […]

For series [3], the target named is T1, D3 DAR. Nature of the series: DiscoverX D3 DAR β-arrestin recruitment assay. It is filed as cell-based. Further details: host or cells: CHO. The procedure, abridged: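 CHO cells overexpressing D3 DAR fused to a ProLink β-galactosidase fragment plus a β-arrestin–β-galactosidase deletion mutant fusion. Receptor activation drives β-arrestin recruitment and enzyme complementation. Chemiluminescent read-out after detection substrate is added.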
A general note: Arrestin recruitment assays detect the binding of arrestin to an activated receptor.

Series [4] deals with D2 DAR (Homo sapiens, UniProt P14416). Nature of the series: DiscoverX D2 DAR β-arrestin recruitment assay. It counts as cell-based. Also noted: host or cells: CHO. Particulars: EC80 concentration of DA (1 μM). The procedure, abridged: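 CHO cells co-expressing ProLink-tagged D2 DAR and enzyme-acceptor-fused β-arrestin (PathHunter enzyme-fragment complementation). Receptor activation recruits β-arrestin, reconstituting β-galactosidase; detection reagent hydrolysis gives chemiluminescent read-out. Same PathHunter format used for other dopamine receptor subtypes.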

The target of series [5] is T1, D3 DAR. Description: Functional curve-shift assays using the DiscoverX β-arrestin recruitment assay. It is filed as cell-based. Also noted: host or cells: CHO. From the text:
To further assess the mechanism of action of Cmp. […] 1 (FIGS. 4B and 4D). […] Average curves are shown (mean±SEM from at least 3 experiments each performed in triplicate). […] In contrast, increasing concentrations of Cmp.
1. FIG. 6A-C panels show concentration-response curves of dopamine in the absence or presence of increasing concentrations of compound. Cmp. […] 18 (FIG. 6A), Cmp. 5 (FIG. 6B), and Cmp. 17 (FIG. 6C), respectively. Average curves are shown (mean±SEM from at least 3 experiments, each performed in triplicate).
A D3 DAR β-arrestin cell line from DiscoverX (Fremont, CA) was used as described in the protocol below (Table 2). A CHO cell line engineered to overexpress the D3 DAR fused with a small 42-amino acid fragment of β-galactosidase called ProLink™ and a fusion protein consisting of β-arrestin and a larger N-terminal deletion mutant of β-galactosidase was used (DiscoverX catalogue number 93-0579C2). When the D3 DAR is activated by dopamine, it stimulates binding of β-arrestin to ProLink-tagged D3 DARs, and the two complementary parts of β-galactosidase form a functional enzyme. When substrate (PathHunter® Detection reagent, DiscoverX 93-0001) is added, β-galactosidase hydrolyzes it and generates a chemiluminescent signal.

Where only a bound is given, the exact number is not on record here.

T1 sequence (P35462 whole entry): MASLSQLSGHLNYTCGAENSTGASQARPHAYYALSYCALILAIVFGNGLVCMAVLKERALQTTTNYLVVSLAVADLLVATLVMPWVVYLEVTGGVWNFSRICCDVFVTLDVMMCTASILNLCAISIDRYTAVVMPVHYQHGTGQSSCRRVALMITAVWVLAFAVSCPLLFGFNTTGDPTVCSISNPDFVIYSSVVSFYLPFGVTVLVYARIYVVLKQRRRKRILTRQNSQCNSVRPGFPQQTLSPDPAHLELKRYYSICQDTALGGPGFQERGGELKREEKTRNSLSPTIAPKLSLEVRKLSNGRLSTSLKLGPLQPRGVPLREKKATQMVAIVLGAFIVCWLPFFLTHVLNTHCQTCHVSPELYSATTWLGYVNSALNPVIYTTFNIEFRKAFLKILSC
D2 DAR, sequence (P14416 whole entry, the tested form may be a part): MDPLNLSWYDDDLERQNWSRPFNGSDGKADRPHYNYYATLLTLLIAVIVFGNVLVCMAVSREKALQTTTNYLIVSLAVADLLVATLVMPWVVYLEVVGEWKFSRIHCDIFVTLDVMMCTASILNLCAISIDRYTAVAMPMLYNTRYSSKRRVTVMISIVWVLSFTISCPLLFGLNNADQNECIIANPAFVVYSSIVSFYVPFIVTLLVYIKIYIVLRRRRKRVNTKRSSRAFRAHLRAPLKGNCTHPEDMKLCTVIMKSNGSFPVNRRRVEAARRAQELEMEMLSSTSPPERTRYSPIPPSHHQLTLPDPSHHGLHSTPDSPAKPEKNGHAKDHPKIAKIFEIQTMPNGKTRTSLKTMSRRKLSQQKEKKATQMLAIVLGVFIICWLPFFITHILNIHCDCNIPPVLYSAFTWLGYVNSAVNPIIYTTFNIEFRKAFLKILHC

Turning to `Cc1[nH]c(C)c(S(=O)(=O)Nc2ccc(C(F)(F)F)c(Cl)c2)c1C(=O)N1CCC(F)(F)C1` [Cmp. 17, N-(3-chloro-4-(trifluoromethyl)phenyl)-4-(3,3-difluoropyrrolidine-1-carbonyl)-2,5-dimethyl-1H-pyrrole-3-sulfonamide], the Emax was more than 100% in series [1] and 80 to 100% in series [3] (Imax=maximum inhibition, EC80 DA (30 nM)). The brain penetration result in series [2] is listed as “brain penetrant”. The half-life – broadly, how long it takes for the measured level to halve – in series [2] (mouse, in vivo, ip) was approximately 4 h. Also, the IC50 – broadly, the point on the concentration scale where inhibition reaches its midpoint – was less than 10 µM in series [3] (EC80 concentration of DA (30 nM), read-out: D3 DAR IC50); more than 100 µM in series [4]; 1.7 µM in series [5] (agonist dopamine, read-out: Functional IC50 for decreasing the Emax of dopamine). The “D2 DAR Imax” value in series [4] is given as “NA (“NA” indicates not active)”. Moreover, the “mode of antagonism in curve-shift assays” value in series [5] (versus agonist (dopamine, pramipexole)) is given as “noncompetitive antagonism”.
